Reference: patent US9926340B2, “NAD analogs and methods of using said NAD analogs in determining ribosylation of proteins with PARP mutants” (The Board of Regents of the University of Texas System, priority 2015, dated 2018)

Tests used:
PARP-1 = biological target: T1, PARP-1 (Homo sapiens, UniProt P09874); test: PARP-1 enzyme kinetics assay (LC-HPLC of nicotinamide formation); format: biochemical; details: 250 nM PARP-1, 10-500 μM analog; data not shown
T1 construct: His10; made in house; host or cells: E. coli BL21(DE3) (inferred)
T1 sequence (P09874 whole entry): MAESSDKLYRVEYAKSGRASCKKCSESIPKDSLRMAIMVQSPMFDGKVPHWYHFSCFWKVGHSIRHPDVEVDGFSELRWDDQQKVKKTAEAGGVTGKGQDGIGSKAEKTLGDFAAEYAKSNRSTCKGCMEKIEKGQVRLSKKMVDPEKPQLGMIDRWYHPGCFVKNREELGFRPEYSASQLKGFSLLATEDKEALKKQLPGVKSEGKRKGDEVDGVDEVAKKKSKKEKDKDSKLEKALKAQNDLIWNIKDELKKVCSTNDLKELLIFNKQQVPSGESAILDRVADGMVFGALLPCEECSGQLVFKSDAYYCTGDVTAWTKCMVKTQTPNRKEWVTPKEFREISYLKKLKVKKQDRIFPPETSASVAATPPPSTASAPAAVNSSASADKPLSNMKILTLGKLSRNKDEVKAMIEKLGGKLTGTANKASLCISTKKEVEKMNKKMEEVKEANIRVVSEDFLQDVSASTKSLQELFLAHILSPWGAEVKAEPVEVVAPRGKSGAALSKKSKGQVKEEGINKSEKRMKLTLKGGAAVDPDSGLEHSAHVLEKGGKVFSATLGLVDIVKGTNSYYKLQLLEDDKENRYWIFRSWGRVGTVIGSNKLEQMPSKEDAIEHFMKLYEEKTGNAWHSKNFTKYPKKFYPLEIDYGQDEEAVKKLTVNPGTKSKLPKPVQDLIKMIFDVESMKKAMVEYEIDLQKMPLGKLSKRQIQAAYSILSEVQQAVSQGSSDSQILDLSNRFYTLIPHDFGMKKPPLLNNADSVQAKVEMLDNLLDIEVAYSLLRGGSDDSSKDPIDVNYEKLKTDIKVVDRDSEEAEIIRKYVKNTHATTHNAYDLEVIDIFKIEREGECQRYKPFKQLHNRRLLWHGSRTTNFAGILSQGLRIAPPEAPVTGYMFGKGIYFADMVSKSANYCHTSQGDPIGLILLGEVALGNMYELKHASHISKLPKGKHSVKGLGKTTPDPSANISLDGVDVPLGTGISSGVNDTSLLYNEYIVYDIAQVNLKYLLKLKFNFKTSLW
Experimental: (§1) The enzyme kinetics of wild-type and analog-sensitive mutants of human PARP-1 were determined essentially as previously described (Jiang et al., 2010). Purified PARP-1 proteins were incubated for 5 minutes in PARP Enzyme Kinetics Buffer (50 mM Tris.HCl, pH 7.9, 4 mM MgCl2) containing 0.5 mg/mL sonicated salmon sperm DNA (Stratagene) at 25° C. with 10, 20, 30, 50, 100, 250, and 500 μM NAD^+ or 8-Bu(3-yne)T-NAD^+. The concentrations of the purified PARP-1 proteins were (1) 25 nM for PARP-1 with NAD^+, (2) 50 nM for PARP-1(L877A) with NAD^+, and […] 250 nM for PARP-1 and PARP-1(L877A) with 8-bu(3-yne)T-NAD^+. The reactions were brought to 450 mM perchloric acid (HClO4) to stop them, incubated for 5 minutes on ice, and then brought to […] potassium carbonate (K2CO3) to quench them. The quenched reactions were centrifuged at maximum speed in a microcentrifuge at 4° C., and the supernatant containing small molecules from the automodification reaction was collected.
(§2) The supernatants from the extracted ADP-ribosylation reactions were analyzed using a Shimadzu LCMS-QP8000α with a Phenomenex Kinetex C18 column (150×4.6 mm, 5 μm XB-C18 100A) monitored at 260 nm. […] Quantitative values for the small molecules and metabolites were obtained by comparison to a standard curve. […]

PARP-1 (L877A) = biological target: T2, PARP-1 (L877A) (Homo sapiens, UniProt P09874, L877A); test: as above; format: biochemical; details: 250 nM PARP-1(L877A), 10-500 μM analog, 25° C., 5 minutes
T2 construct: His10; made in house; host or cells: E. coli BL21(DE3) (inferred)
T2 sequence (P09874 whole entry L877A): as the sequence (P09874 whole entry) above, with L877A counted along it
Experimental: as §1, §2

C#CCCSc1nc2c(N)ncnc2n1[C@@H]1O[C@H](COP(=O)(O)OP(=O)(O)OC[C@H]2O[C@@H]([n+]3cccc(C(N)=O)c3)C(O)C2O)[C@H](O)C1O (some centres unmarked) [8-Bu(3-yne)T-NAD^+]
saturation of PARylation activity (PARP-1): No saturation was detectable
enzyme kinetics compared to PARP-1 and NAD+ (PARP-1 (L877A)): nearing wild-type enzyme kinetics
